# According to PubChem BioAssay AID1963838 (Molecular Pharmacology Branch, DTP, NCI, 2024):
# Tested on: 855422-203-R-J1-PDC complex spheroid viability
# Test: Anticancer human tumor 855422-203-R-J1-PDC patient-derived bladder carcinoma cell line growth inhibition [POLQ]
# Details: for IC50: curve of first compound; for viability, T/C: stronger effect = lower value
# Description: Multicellular complex tumor spheroid response to Polymerase (POL) inhibitors (novobiocin, ART-558, RP6685) in combination with a variety of drugs and investigational agents in selected tumor cell lines
# The POL inhibitors (novobiocin, ART-558, and RP6685) were evaluated both individually and in combination with standard of care and investigational anticancer small molecules within a complex spheroid model of solid tumors. . Complex spheroids include a stromal component modeled by human endothelial cells (HUVEC) and fibroblasts modeled by human mesenchymal stem cells (MSCs). The concentration ranges selected for each drug and investigational agent were based upon clinically achievable concentrations if the clinical Cmax of the agent was known.
# Compounds. The drugs and investigational agents: novobiocin (NSC847541), ART-558 (NSC835418), RP-6685 (NSC848927), peposertib (NSC802822), ceralasertib (NSC780249), elimusertib (NSC800525), camonsertib (NSC841442), AZD-1390 (NSC803789), olaparib (NSC753686), talazoparib (NSC767125), rucaparib (NSC756644), sotorasib (NSC818433), MRTX-1133 (NSC836407), SN-38 (NSC673596), topotecan (NSC609699), epotoside (NSC141540), doxorubicin (NSC123127), gemcitabine (NSC613327), 5-fluorouracil (NSC19893), paclitaxel (NSC125973), vemurafenib (NSC761431), MSA-2 (NSC828583), SN-011 (NSC837082), adavosertib (NSC754352), prexasertib (NSC758257), carboplatin (NSC241240) and oxaliplatin (NSC266046), were obtained from the National Cancer Institute (NCI) Developmental Therapeutics Program Chemical Repository (21). The FDA-approved anticancer drug set is available from the Developmental Therapeutics Program at https://dtp.cancer.gov/organization/dscb/obtaining/. […] The stock solutions were prepared in dimethyl sulfoxide (DMSO, Sigma-Aldrich, St. Louis, MO, cat. D2650), except for the platinum compounds which were prepared in saline (Quality Biological, Gaithersburg, MD, cat. 114-055-101), at 800-fold the tested concentration and stored at -70 degrees C prior to their use. All drugs and investigational agents were tested over a range starting from a high concentration at or near the clinical Cmax and decreasing in half-log increments. If the clinical Cmax for an agent had not been determined, the highest concentration tested was 10 microM, except for SN-38, which was tested at a high concentration of 1 microM.
# Cell Culture. All cells were maintained in an incubator at 37 degrees C and 5% CO2 with 95% humidity. The PDC lines were cultured according to standard operating procedures established by the NCI PDMR (https://pdmr.cancer.gov). Table 3 of the manuscript, lists the cell lines along with the number of the three cell types plated to form the mct-spheroids and media for tumor cell growth. After thawing, all PDC lines, except 997537-175-T-J1-PDC and 415267-285-R-J2-PDC, were cultured in Matrigel-coated flasks prepared with a working solution of 1X Ham's F-12 nutrient mix, without supplementation (Thermo Fisher Scientific, cat. 11765054), 100 U/mL penicillin-streptomycin (Thermo Fisher Scientific, cat. 15140122), and 2.5% Matrigel (Corning Inc., Corning, NY, cat. 354248) for the first three passages. The two PDC lines 997537-175-T-J1-PDC and 415267-285-R-J2-PDC were cultured on uncoated flasks. The 857933-349-R-J2-PDC line was cultured in 6C/Colon 1B media containing advanced DMEM/F-12 (Thermo Fisher Scientific, cat. 12634028), 10 mM HEPES (Thermo Fisher Scientific, cat. 15630080), 1X GlutaMAX supplement (Thermo Fisher Scientific, cat. 35050061), 0.1 mg/mL primocin (InvivoGen, San Diego, CA, cat. ant-pm-2), 10% defined fetal bovine serum, heat inactivated (HyClone Laboratories Inc., Logan, UT, cat. SH30070.03HI), 50% L-WRN conditioned media (ATCC, cat. CRL-3276), 1.25 mM N-Acetyl-L-cysteine (Sigma-Aldrich, cat. A9165), 10 mM nicotinamide (Sigma-Aldrich, cat. N0636), 1X B-27 supplement (Thermo Fisher Scientific, cat. 17504044), 1X N-2 supplement (Thermo Fisher Scientific, cat. […]
# [1] = second compound 0.0316 µM, first compound 0.00316 µM
# [2] = second compound 0.0316 µM, first compound 0.01 µM
# [3] = second compound 0.0316 µM, first compound 0.0316 µM
# [4] = second compound 0.0316 µM, first compound 0.1 µM
# [5] = second compound 0.1 µM, first compound 0.00316 µM
# [6] = second compound 0.1 µM, first compound 0.01 µM
# [7] = second compound 0.1 µM, first compound 0.0316 µM
# [8] = second compound 0.1 µM, first compound 0.1 µM
# [9] = second compound 0.316 µM, first compound 0.00316 µM
# [10] = second compound 0.316 µM, first compound 0.01 µM
# [11] = second compound 0.316 µM, first compound 0.0316 µM
# [12] = second compound 0.316 µM, first compound 0.1 µM
# [13] = second compound 1 µM, first compound 0.00316 µM
# [14] = second compound 1 µM, first compound 0.01 µM
# [15] = second compound 1 µM, first compound 0.0316 µM
# [16] = second compound 1 µM, first compound 0.1 µM
# [17] = second compound 3.16 µM, first compound 0.00316 µM
# [18] = second compound 3.16 µM, first compound 0.01 µM
# [19] = second compound 3.16 µM, first compound 0.0316 µM
# [20] = second compound 3.16 µM, first compound 0.1 µM
# [21] = second compound 10 µM, first compound 0.00316 µM
# [22] = second compound 10 µM, first compound 0.01 µM
# [23] = second compound 10 µM, first compound 0.0316 µM
# [24] = second compound 10 µM, first compound 0.1 µM
# 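Also: spheroids exposed to compounds for seven days before readout.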
smiles,measurement,setting,value
C=CCn1c(=O)c2cnc(Nc3ccc(N4CCN(C)CC4)cc3)nc2n1-c1cccc(C(C)(C)O)n1 + COC1C(OC(N)=O)C(O)C(Oc2ccc3c(O)c(NC(=O)c4ccc(O)c(CC=C(C)C)c4)c(=O)oc3c2C)OC1(C)C,IC50,second compound 0.0316 µM,> 1 µM
same,IC50,second compound 0.1 µM,> 1 µM
same,IC50,second compound 0.316 µM,> 1 µM
same,IC50,second compound 1 µM,> 1 µM
same,IC50,second compound 3.16 µM,> 1 µM
same,IC50,second compound 10 µM,> 1 µM
same,"viability, T/C",[1],90.6%
same,"viability, T/C",[2],93.2%
same,"viability, T/C",[3],96.4%
same,"viability, T/C",[4],94.5%
same,"viability, T/C","second compound 0.0316 µM, first compound 0.316 µM",92.1%
same,"viability, T/C","second compound 0.0316 µM, first compound 1 µM",101%
same,"viability, T/C",[5],95.9%
same,"viability, T/C",[6],94.3%
same,"viability, T/C",[7],91.9%
same,"viability, T/C",[8],107%
same,"viability, T/C","second compound 0.1 µM, first compound 0.316 µM",105%
same,"viability, T/C","second compound 0.1 µM, first compound 1 µM",99.7%
same,"viability, T/C",[9],98.7%
same,"viability, T/C",[10],103%
same,"viability, T/C",[11],95.9%
same,"viability, T/C",[12],106%
same,"viability, T/C","second compound 0.316 µM, first compound 0.316 µM",109%
same,"viability, T/C","second compound 0.316 µM, first compound 1 µM",103%
same,"viability, T/C",[13],91.5%
same,"viability, T/C",[14],110%
same,"viability, T/C",[15],102%
same,"viability, T/C",[16],98.9%
same,"viability, T/C","second compound 1 µM, first compound 0.316 µM",103%
same,"viability, T/C","second compound 1 µM, first compound 1 µM",93.1%
same,"viability, T/C",[17],107%
same,"viability, T/C",[18],95.4%
same,"viability, T/C",[19],94.1%
same,"viability, T/C",[20],102%
same,"viability, T/C","second compound 3.16 µM, first compound 0.316 µM",113%
same,"viability, T/C","second compound 3.16 µM, first compound 1 µM",91.9%
same,"viability, T/C",[21],105%
same,"viability, T/C",[22],104%
same,"viability, T/C",[23],101%
same,"viability, T/C",[24],96%
same,"viability, T/C","second compound 10 µM, first compound 0.316 µM",94.2%
same,"viability, T/C","second compound 10 µM, first compound 1 µM",90%
CC[C@@]1(O)C(=O)OCc2c1cc1n(c2=O)Cc2cc3c(CN(C)C)c(O)ccc3nc2-1 + COC1C(OC(N)=O)C(O)C(Oc2ccc3c(O)c(NC(=O)c4ccc(O)c(CC=C(C)C)c4)c(=O)oc3c2C)OC1(C)C,IC50,second compound 0.0316 µM,0.0352 µM
same,IC50,second compound 0.1 µM,0.0303 µM
same,IC50,second compound 0.316 µM,0.0302 µM
same,IC50,second compound 1 µM,0.0277 µM
same,IC50,second compound 3.16 µM,0.0233 µM
same,IC50,second compound 10 µM,0.0225 µM
same,"viability, T/C","second compound 0.0316 µM, first compound 0.000316 µM",125%
same,"viability, T/C","second compound 0.0316 µM, first compound 0.001 µM",123%
same,"viability, T/C",[1],116%
same,"viability, T/C",[2],126%
same,"viability, T/C",[3],53.5%
same,"viability, T/C",[4],14.7%
same,"viability, T/C","second compound 0.1 µM, first compound 0.000316 µM",108%
same,"viability, T/C","second compound 0.1 µM, first compound 0.001 µM",111%
same,"viability, T/C",[5],104%
same,"viability, T/C",[6],113%
same,"viability, T/C",[7],47.8%
same,"viability, T/C",[8],11.8%
same,"viability, T/C","second compound 0.316 µM, first compound 0.000316 µM",116%
same,"viability, T/C","second compound 0.316 µM, first compound 0.001 µM",110%
same,"viability, T/C",[9],122%
same,"viability, T/C",[10],101%
same,"viability, T/C",[11],48.2%
same,"viability, T/C",[12],11.7%
same,"viability, T/C","second compound 1 µM, first compound 0.000316 µM",116%
same,"viability, T/C","second compound 1 µM, first compound 0.001 µM",124%
same,"viability, T/C",[13],112%
same,"viability, T/C",[14],91.7%
same,"viability, T/C",[15],44.7%
same,"viability, T/C",[16],10.6%
same,"viability, T/C","second compound 3.16 µM, first compound 0.000316 µM",112%
same,"viability, T/C","second compound 3.16 µM, first compound 0.001 µM",108%
same,"viability, T/C",[17],109%
same,"viability, T/C",[18],112%
same,"viability, T/C",[19],28.4%
same,"viability, T/C",[20],11.7%
same,"viability, T/C","second compound 10 µM, first compound 0.000316 µM",117%
same,"viability, T/C","second compound 10 µM, first compound 0.001 µM",107%
same,"viability, T/C",[21],117%
same,"viability, T/C",[22],98.9%
same,"viability, T/C",[23],29.6%
same,"viability, T/C",[24],16.2%
